Earlier results in PMC3263412 (International Journal of Nanomedicine, 2012).

Structure (SMILES): CCCCCCCCCCCCCCCC[N+](C)(C)C [CTAB, Cetyltrimethyl ammonium bromide]
- cytotoxicity: marked cytotoxicity
